The values that follow come from ChEMBL document CHEMBL1201862, “PubChem BioAssay data set” (2004).

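Values below derive from 48-hour exposures of cells grown in 96-well plates, with endpoints linearly interpolated between the two concentrations bracketing the appropriate inhibition level. At the GI50, growth is halved.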 Activity calls are given as the source filed them. No stated cut-off is given here; in the data, active = GI50 up to about 1.1 µM and inactive = higher.

Some test systems named below: ACHN; DU-145; HCC 2998; HCT-116; HOP-62; HOP-92; K562; M14; MDA-MB-435; MDA-N; MOLT-4; NCI-H23; OVCAR-3; OVCAR-5; SF-295; SK-MEL-2; UACC-257; UACC-62; UO-31.
Test in all cases: DTP human tumour cell line panel, 48 h

The GI50 is the concentration that inhibits growth by half.

On to `CCOC(=O)c1c(Br)c(-c2ccc(Br)cc2)c(Br)n1C`, for which the GI50 with ACHN was 23.4 µM (inactive); in the experiment on DU-145, 31.1 µM (inactive); with HCC 2998, 19.5 µM (inactive); with HCT-116, 6.32 µM (inactive); in the experiment with HOP-62, 19.9 µM (inactive); with HOP-92 it was 7.31 µM (inactive). The GI50 was 5.08 µM (inactive) in the experiment with K562; 18.8 µM (inactive) with M14; 3.15 µM (inactive) in the experiment on MDA-MB-435; 3.4 µM (inactive) in the experiment with MDA-N; 16.4 µM (inactive) in the experiment with MOLT-4; 22.7 µM (inactive) in the experiment on NCI-H23. For the same compound, the GI50 with OVCAR-3 was 14.7 µM (inactive); in the experiment with OVCAR-5, 19.4 µM (inactive); with SF-295, 17.9 µM (inactive); in the experiment on SK-MEL-2, > 10 µM (inactive); in the experiment with UACC-257 it was 20.7 µM (inactive); with UACC-62, 9.27 µM (inactive). Besides, in the experiment on UO-31, the GI50 was 17.9 µM (inactive).
For the compound `COc1ccc2c(c1)-c1nc(=S)n(CCN(C)C)c3ccc([N+](=O)[O-])c(c13)N2`, the GI50 in the experiment with ACHN is 0.345 µM (active); in the experiment with DU-145, 0.923 µM (active); in the experiment on HCC 2998, 0.809 µM (active); in the experiment with HCT-116, 0.247 µM (active); in the experiment on HOP-62, 0.594 µM (active); with HOP-92, 6.61 µM (inactive). In addition, the GI50 was 0.389 µM (active) with K562; 2.94 µM (inactive) in the experiment with M14; 2.1 µM (inactive) with MDA-MB-435; 0.948 µM (active) with MDA-N; 0.15 µM (active) in the experiment with MOLT-4; 1.16 µM (inactive) in the experiment with NCI-H23. Further, the GI50 with OVCAR-3 is 1.23 µM (inactive); with OVCAR-5, 3.13 µM (inactive); in the experiment with SF-295 it was 0.794 µM (active); in the experiment with SK-MEL-2 it was 7.31 µM (inactive); in the experiment on UACC-257 it was 1 µM (active); with UACC-62, 10.6 µM (inactive). Also, the GI50 with UO-31 was 0.794 µM (active).
In the case of `CSCCC(NC(=O)Cc1ccc(C(=O)c2ccccc2)cc1)C(=O)O` (stereo not given), the GI50 in the experiment on ACHN, in the experiment on DU-145, with HCC 2998, in the experiment with HCT-116, in the experiment with HOP-62 and in the experiment on HOP-92 was > 100 µM (inactive) each time. For the same compound, the GI50 with K562, with M14, in the experiment with MDA-MB-435, with MDA-N, in the experiment with MOLT-4 and with NCI-H23 was > 100 µM (inactive) throughout. Further, the GI50 in the experiment on OVCAR-3, in the experiment on OVCAR-5, in the experiment on SF-295, in the experiment with SK-MEL-2, in the experiment on UACC-257 and with UACC-62 was > 100 µM (inactive) in each case. Also, the GI50 with UO-31 was > 100 µM (inactive).
`N#CCCN(CCC#N)c1ccc(C(=N/c2ccc(F)cc2)/N=N/c2ccccc2)cc1`: the GI50 in the experiment with ACHN, in the experiment with DU-145, in the experiment with HCC 2998, in the experiment on HCT-116, in the experiment with HOP-62 and in the experiment with HOP-92 was > 100 µM (inactive) each time. The GI50 is > 100 µM (inactive) with K562; > 100 µM (inactive) in the experiment on M14; > 100 µM (inactive) in the experiment on MDA-MB-435; > 100 µM (inactive) in the experiment on MDA-N; > 100 µM (inactive) with MOLT-4; 96.8 µM (inactive) with NCI-H23. Moreover, the GI50 with OVCAR-3 was 95.3 µM (inactive); in the experiment with OVCAR-5 it was > 100 µM (inactive); in the experiment with SF-295, 32.8 µM (inactive); in the experiment on SK-MEL-2, 93.3 µM (inactive); in the experiment with UACC-257, 60.5 µM (inactive); with UACC-62, > 100 µM (inactive). For the same compound, the GI50 with UO-31 is > 100 µM (inactive).
Take `CC(C)C(OC(=O)c1cc(NC(=S)c2ccccc2)ccc1Cl)C(C)C`: the GI50 was 14.9 µM (inactive) in the experiment on ACHN; 24.2 µM (inactive) in the experiment with DU-145; 12.4 µM (inactive) in the experiment on HCC 2998; 12.3 µM (inactive) in the experiment with HCT-116; 29.6 µM (inactive) in the experiment on HOP-62; 8.39 µM (inactive) in the experiment with HOP-92. Further, the GI50 in the experiment with K562 was 25.7 µM (inactive); in the experiment with M14 it was 31.7 µM (inactive); in the experiment on MDA-MB-435, 14.7 µM (inactive); in the experiment with MDA-N, 16.6 µM (inactive); in the experiment with MOLT-4, 10.1 µM (inactive); in the experiment with NCI-H23 it was 6.5 µM (inactive). Besides, the GI50 in the experiment on OVCAR-3 is 16.4 µM (inactive); in the experiment with OVCAR-5, 42.7 µM (inactive); in the experiment with SF-295, 4.53 µM (inactive); in the experiment with SK-MEL-2 it was 16 µM (inactive); in the experiment on UACC-257, 13.7 µM (inactive); with UACC-62, 11.8 µM (inactive). The GI50 with UO-31 is 11.4 µM (inactive).
`C[Si](C)(c1ccccc1)[C@H]1CCCC=C1CCNC1c2ccccc2CCc2ccccc21`: the GI50 in the experiment on ACHN is 67.5 µM (inactive); in the experiment with DU-145 it was > 100 µM (inactive); with HCC 2998, > 100 µM (inactive); in the experiment on HCT-116 it was 48.3 µM (inactive); with HOP-62, > 100 µM (inactive); with HOP-92, 23.7 µM (inactive). Besides, the GI50 was 52.1 µM (inactive) with K562; 56.5 µM (inactive) in the experiment on M14; 76.2 µM (inactive) in the experiment on MDA-MB-435; 70.5 µM (inactive) in the experiment with MDA-N; 30 µM (inactive) with MOLT-4; 61.5 µM (inactive) in the experiment with NCI-H23. The GI50 with OVCAR-3 was > 100 µM (inactive); in the experiment with OVCAR-5, > 100 µM (inactive); with SF-295 it was 40.6 µM (inactive); in the experiment with SK-MEL-2, > 100 µM (inactive); with UACC-257 it was 52.4 µM (inactive); in the experiment with UACC-62 it was 61.4 µM (inactive). Also, the GI50 in the experiment with UO-31 was 49.5 µM (inactive).
For `OC1NC2CC3NC(O)C(O)NC3CC2NC1O` (stereo not given), the GI50 with ACHN, with DU-145, in the experiment with HCC 2998, in the experiment on HCT-116, in the experiment with HOP-62 and in the experiment on HOP-92 was > 100 µM (inactive) throughout. In addition, the GI50 in the experiment with K562, in the experiment on M14, with MDA-MB-435, in the experiment on MDA-N, in the experiment with MOLT-4 and in the experiment on NCI-H23 was > 100 µM (inactive) each time. Further, the GI50 in the experiment on OVCAR-3, in the experiment with OVCAR-5, with SF-295, with SK-MEL-2, in the experiment on UACC-257 and in the experiment with UACC-62 was > 100 µM (inactive) each time. The GI50 in the experiment on UO-31 was > 100 µM (inactive).
Take `O=C1c2ccccc2/C(=N\c2ccc3ccccc3c2)C1(C1=C(c2ccccc2)/C(=N/c2ccc3ccccc3c2)c2ccccc21)c1ccccc1` (stereo not given): the GI50 with ACHN is 2.53 µM (inactive); in the experiment on DU-145, 5.57 µM (inactive); with HCC 2998 it was 11.5 µM (inactive); in the experiment on HCT-116, 3.85 µM (inactive); in the experiment with HOP-62 it was 12.5 µM (inactive); with HOP-92, > 100 µM (inactive). In addition, the GI50 is 4.22 µM (inactive) with K562; 4.02 µM (inactive) in the experiment with M14; 3.33 µM (inactive) in the experiment with MDA-MB-435; 3.89 µM (inactive) in the experiment with MDA-N; 2.58 µM (inactive) in the experiment with MOLT-4; 4.09 µM (inactive) in the experiment on NCI-H23. The GI50 with OVCAR-3 is 73.3 µM (inactive); with OVCAR-5 it was > 57.8 µM (inactive); in the experiment with SF-295 it was 10.9 µM (inactive); with SK-MEL-2 it was 11.9 µM (inactive); with UACC-257, 5.73 µM (inactive); in the experiment on UACC-62, 5.15 µM (inactive). For the same compound, the GI50 in the experiment with UO-31 was 4.65 µM (inactive).
On to `CCCCCC(=O)OCC(=O)[C@H]1[C@H](C)C[C@H]2[C@@H]3C[C@H](F)C4=C/C(=N/OC(=O)c5cccc6c(=O)c7ccccc7[nH]c56)C=C[C@]4(C)[C@H]3[C@@H](O)C[C@@]21C`, for which the GI50 in the experiment on ACHN was 19.9 µM (inactive); in the experiment with DU-145 it was 39.4 µM (inactive); with HCC 2998 it was 24.7 µM (inactive); in the experiment with HCT-116, 26.4 µM (inactive); with HOP-62 it was 33.4 µM (inactive); in the experiment on HOP-92 it was 73.1 µM (inactive). For the same compound, the GI50 was 46.5 µM (inactive) in the experiment with K562; 28.6 µM (inactive) in the experiment with M14; 23.8 µM (inactive) in the experiment on MDA-MB-435; 28.3 µM (inactive) in the experiment with MDA-N; 17.8 µM (inactive) in the experiment with MOLT-4; 29.6 µM (inactive) with NCI-H23. Moreover, the GI50 in the experiment on OVCAR-3 was 18.9 µM (inactive); in the experiment on OVCAR-5, 32.8 µM (inactive); in the experiment with SF-295 it was 47.8 µM (inactive); in the experiment with SK-MEL-2, 23.1 µM (inactive); in the experiment on UACC-257, 20 µM (inactive); with UACC-62, 16.7 µM (inactive). The GI50 in the experiment with UO-31 is 16 µM (inactive).
With `Cc1c2c(C#N)nccc2c(C)c2c1c1ccccc1n2Cc1ccccc1`, the GI50 with ACHN is > 100 µM (inactive); in the experiment with DU-145, > 100 µM (inactive); in the experiment on HCC 2998 it was > 100 µM (inactive); with HCT-116 it was > 100 µM (inactive); in the experiment with HOP-62, > 100 µM (inactive); in the experiment with HOP-92 it was 77.8 µM (inactive). Further, the GI50 in the experiment on K562 is > 100 µM (inactive); in the experiment with M14, > 100 µM (inactive); with MDA-MB-435, > 100 µM (inactive); with MDA-N, > 100 µM (inactive); in the experiment on MOLT-4 it was > 10 µM (inactive); in the experiment on NCI-H23, > 100 µM (inactive). Moreover, the GI50 in the experiment with OVCAR-3, in the experiment with OVCAR-5, in the experiment on SF-295, in the experiment on SK-MEL-2, with UACC-257 and with UACC-62 was > 100 µM (inactive) each time. In the experiment with UO-31, the GI50 was > 100 µM (inactive).
